{"source": "patent US11744861B2", "about": "“Compositions and methods for selective elimination and replacement of hematopoietic stem cells” (Poseida Therapeutics, Inc., priority 2017, dated 2023)", "key": {"[1]": {"test_system": "CARTyrin-expressing cells", "assay": "in vitro efficacy of iC9 safety switch with AP1903 (relative viability, live cells per bead events)", "type": "cell-based, Human", "experimental": "FIGS. 2A-2B is a series of graphs depicting results of evaluating the in vitro efficacy of an inducible proapoptotic polypeptide (iC9 safety switch) of the disclosure using the exemplary induction agent AP1903. Cells expressing a CARTyrin of the disclosure were A) thawed and rested overnight or B) activated using ImmunoCult™ Human CD3/CD28/CD2 T cell Activator reagent for 5 days were treated with AP1903 for the indicated length of time and concentrations. All data points were collected in triplicate and relative viability determined by dividing the number of live cells in the treatment group by the average number of live cells in the no treatment group per 1,500 bead events collected. Greater than 80% of the non-activated CARTyrin-expressing cells were eliminated from the culture at 24 hours across all dose levels tested (FIG. 1). There was no observable difference between the 24 hour and 48 hour time point in the non-activated cells. In the activated CARTyrin-expressing cells however, both a dose response as well as temporal response were observed. At 12 hours post AP1903 administration, >65% of the cells were killed by concentrations as low as 1 nM. […] Expression of the CARTyrin is be increased upon activation of the cells, and provided the vector design; the expression of iC9 could also increase. Therefore, an activated cell may express higher levels of iC9 making it more sensitive to AP1903. In many embodiments, the activated cells will be the target if and when employing the safety switch."}, "[2]": {"test_system": "Human pan T-cells with piggyBac integrated iC9", "assay": "iC9 safety switch test, viability by flow cytometry using 7-AAD", "type": "cell-based", "conditions": "iC9-containing modified T cells; 24 hours incubation", "excerpt": "Human pan T-cells were nucleofected using an Amaxa 4D nucleofector with one of four piggyBac transposons. Modified T cells receiving the “mock” condition were nucleofected with an empty piggyBac transposon. Modified T cells received either a piggyBac […] containing a therapeutic agent alone (a sequence encoding a CARTyrin) or a piggyBac […] containing an integrated iC9 sequence and a therapeutic agent (a sequence encoding a CARTyrin). To test the iC9 safety switch, each of the four modified T cells were incubated for 24 hours with 0, 0.1 nM, 1 nM, 10 nM, 100 nM or 1000 nM AP1903 (an induction agent for […]). Viability was assessed by flow cytometry using 7-aminoactinomycin D (7-AAD), a fluorescent intercalator, as a marker for cells undergoing apoptosis. Cell viability was assessed at day 12 (see FIG. 2). […] Moreover, cell viability was assessed at day 19 (see FIG. 3). […] A quantification of the aggregated results was performed and is provided in FIG. 4, showing the significant impact of the iC9 safety switch on the percent cell viability as a function of the concentration of the induction agent (AP1903) of the iC9 switch for each modified cell type at either day 12 (FIG. 2 and left graph) or day 19 (FIG. 3 and right graph). […] Furthermore, the iC9 safety switch may be functionally expressed as part of a tricistronic vector."}}}
{"smiles": "CC[C@H](C(=O)N1CCCC[C@H]1C(=O)O[C@H](CCc1ccc(OC)c(OC)c1)c1cccc(OCC(=O)NCCNC(=O)COc2cccc([C@@H](CCc3ccc(OC)c(OC)c3)OC(=O)[C@@H]3CCCCN3C(=O)[C@@H](CC)c3cc(OC)c(OC)c(OC)c3)c2)c1)c1cc(OC)c(OC)c(OC)c1", "note": "[AP1903]", "values": [{"measurement": "cells killed", "setting": "[1]; activated CARTyrin-expressing cells, 12 hours post AP1903, concentrations as low as 1 nM", "result": "> 65", "unit": "%"}, {"measurement": "cells killed", "setting": "[1]; activated cells, 48 hours", "result": "> 95", "unit": "%"}, {"measurement": "cells eliminated from the culture", "setting": "[1]; non-activated CARTyrin-expressing cells, 24 hours, all dose levels tested", "result": "Greater than 80%"}, {"measurement": "concentration at which apoptosis is induced (lowest of the study)", "setting": "[2]", "result": 0.1, "unit": "nM"}]}
